Laboratory results reported in patent publication EP4768499A1, “MACROCYCLIC PEPTIDE COMPOUND HAVING CELL MEMBRANE PERMEABILITY AND METABOLIC STABILITY, AND LIBRARY CONTAINING SAME” (Chugai Seiyaku Kabushiki Kaisha, priority 2023, dated 2025).
Starred links: 1 amine or outer side, 2 acyl side, 3 side chain; linkers in the order of their positions; H or OH if unused. Positions of bridges follow the written chain, without caps; N, C: chain ends. Non-standard residues stand in square brackets, D forms with d. Residues, ends and D or L forms follow the SMILES beside them. *: point of attachment. NMeF = CN[C@@H](Cc1ccccc1)C(=O)O; NMeI = CC[C@H](C)[C@H](NC)C(=O)O; NMeT = CN[C@H](C(=O)O)[C@@H](C)O; hPhe = N[C@@H](CCc1ccccc1)C(=O)O; NMeβAla = CN(CCC(=O)[*:2])[*:1]; NMeD = CN[C@@H](CC(=O)O)C(=O)O; NMeL = CN[C@@H](CC(C)C)C(=O)O; dNMeV = CN[C@@H](C(=O)O)C(C)C; NMeV = CN[C@H](C(=O)O)C(C)C; NMeA = CN[C@@H](C)C(=O)O; Piperidide = C1CCN(*)CC1; Abu = CC[C@H](N)C(=O)O; NBuGly = CCCCNCC(=O)O; βAla = NCCC(=O)O; Sar = CNCC(=O)O; tBu = CC(C)(C)*

Experiments:
[1] = Metabolic stability test: liver microsomal stability assay; format: in vitro ADME, mouse; details: mouse liver microsomes 0.5 mg protein/mL, compound 1 µM; for microsomal CLint at 1 µM: male, pH 7.4, presence of NADPH, read-out: Mouse Hepatic Microsome CLh,int NADPH(+); for Mouse Hepatic Microsome CLh,int NADPH(-): absence of NADPH
[2] = Membrane permeability test using Caco-2 cells with preincubation; format: in vitro ADME; details: Caco-2; preincubation 20 to 24 hours; Apical FaSSIF/HBSS pH 6.0, Basal HBSS 4% BSA pH 7.4; 180 minutes; read-out: Caco2 Papp
Caco-2 cells = experiment: as above; format: in vitro ADME; details: Caco-2 cells, preincubation 20 to 24 hours; apical FaSSIF/HBSS 1% DMSO pH 6.0, basal HBSS 4% BSA pH 7.4; basal sample at 180 minutes

Row | Structure (SMILES) | microsomal CLint at 1 µM [1] | Mouse Hepatic Microsome CLh,int NADPH(-) [1] | Papp A→B [2] | Caco2 Papp (10^-6 cm/sec) (Caco-2 cells)
1 | CC[C@H](C)[C@@H]1NC(=O)[C@H](Cc2ccccc2)N(C)C(=O)[C@H](CC(C)C)N(C)C(=O)[C@H](CC(C)C)NC(=O)[C@H](C)N(C)C(=O)C[C@@H](C(=O)N2CCCCC2)N(C)C(=O)[C@H](C)N(C)C(=O)[C@H](CC(C)C)NC(=O)[C@H](CC(C)C)N(C)C(=O)CNC(=O)[C@H]([C@@H](C)CC)N(C)C(=O)[C@H](Cc2ccccc2)N(C)C(=O)[C@H](C)NC1=O [pd152] ([NMeA]L[NMeL][NMeF]IA[NMeF][NMeI]G[NMeL]L[NMeA][NMeD]-Piperidide; lactam N-13) | 40.2 µL/min/mg | 32.5 µL/min/mg Protein | 1.02 ×10⁻⁶ cm/s | 1.02 10^-6 cm/sec
2 | CC[C@H](C)[C@@H]1NC(=O)[C@H]([C@@H](C)CC)N(C)C(=O)[C@@H](C)NC(=O)C[C@@H](C(=O)N2CCCCC2)N(C)C(=O)[C@H](Cc2ccccc2)N(C)C(=O)[C@H](C(C)C)NC(=O)[C@H](C)N(C)C(=O)[C@H](CC(C)C)N(C)C(=O)[C@H](C)NC(=O)CN(C)C(=O)[C@H](CC(C)C)N(C)C(=O)[C@H](C)N(C)C(=O)[C@H](Cc2ccccc2)N(C)C1=O [pd153] ([dA][NMeI]I[NMeF][NMeA][NMeL][Sar]A[NMeL][NMeA]V[NMeF][NMeD]-Piperidide; lactam N-13) | 15.1 µL/min/mg | 26.0 µL/min/mg Protein | 0.2 ×10⁻⁶ cm/s | 0.20 10^-6 cm/sec
3 | CC[C@H](C)[C@@H]1NC(=O)[C@H](CC(C)C)N(C)C(=O)CN(C)C(=O)C[C@@H](C(=O)N2CCCCC2)N(C)C(=O)CNC(=O)[C@H](C)N(C)C(=O)[C@H](C(C)C)N(C)C(=O)[C@H](C)N(C)C(=O)[C@H](Cc2ccccc2)N(C)C(=O)[C@H](CC(C)C)NC(=O)[C@H](Cc2ccccc2)N(C)C(=O)[C@H](C(C)C)NC(=O)[C@H](CC(C)C)N(C)C1=O [pd156] ([Sar][NMeL]I[NMeL]V[NMeF]L[NMeF][NMeA][NMeV][NMeA]G[NMeD]-Piperidide; lactam N-13) | 34.1 µL/min/mg | 23.7 µL/min/mg Protein | 0.39 ×10⁻⁶ cm/s | 0.39 10^-6 cm/sec
4 | CC(C)C[C@@H]1NC(=O)[C@H](Cc2ccccc2)N(C)C(=O)[C@H](C)N(C)C(=O)[C@H](CC(C)C)N(C)C(=O)CN(C)C(=O)[C@H](C(C)C)N(C)C(=O)[C@H](CC(C)C)N(C)C(=O)[C@H](C(C)C)N(C)C(=O)[C@H](C(C)C)NC(=O)[C@H](CC(C)C)N(C)C(=O)[C@@H](C(C)C)NC(=O)C[C@@H](C(=O)N2CCCCC2)N(C)C(=O)[C@H](C)N(C)C1=O [pd157] ([dV][NMeL]V[NMeV][NMeL][NMeV][Sar][NMeL][NMeA][NMeF]L[NMeA][NMeD]-Piperidide; lactam N-13) | 31.7 µL/min/mg | 24.9 µL/min/mg Protein | 1.42 ×10⁻⁶ cm/s | 1.42 10^-6 cm/sec
5 | CCCCN1CC(=O)N(C)[C@@H](CC(C)C)C(=O)N[C@@H]([C@@H](C)O)C(=O)N(C)[C@@H](CC(C)C)C(=O)N2CCC[C@H]2C(=O)N[C@@H](CCc2ccccc2)C(=O)N[C@@H]([C@@H](C)CC)C(=O)N(C)[C@H](C(=O)N2CCCCC2)CC(=O)N(C)[C@@H](CC(C)C)C(=O)N[C@@H](COC(C)(C)C)C(=O)N(C)[C@@H](C(C)C)C(=O)N[C@@H]([C@@H](C)CC)C(=O)N2CCC[C@H]2C1=O [pd159] ([NMeL]S(tBu)[NMeV]IP[NBuGly][NMeL]T[NMeL]P[hPhe]I[NMeD]-Piperidide; lactam N-13) | 49.5 µL/min/mg | 42.0 µL/min/mg Protein | 0.64 ×10⁻⁶ cm/s | 0.64 10^-6 cm/sec
6 | CC[C@H](C)[C@@H]1NC(=O)CN(C)C(=O)C[C@@H](C(=O)N2CCCCC2)N(C)C(=O)[C@H](CC(C)C)NC(=O)[C@H](CC(C)C)N(C)C(=O)[C@H]([C@@H](C)O)NC(=O)[C@H](Cc2ccccc2)N(C)C(=O)[C@H](CC(C)C)NC(=O)[C@H](C(C)C)N(C)C(=O)[C@H](C)N(C)C(=O)[C@H](CC(C)C)N(C)C(=O)[C@H](CCc2ccccc2)NC(=O)[C@H](CC(C)C)N(C)C1=O [pd160] ([Sar]I[NMeL][hPhe][NMeL][NMeA][NMeV]L[NMeF]T[NMeL]L[NMeD]-Piperidide; lactam N-13) | 21.5 µL/min/mg | 22.3 µL/min/mg Protein | 0.06 ×10⁻⁶ cm/s | 0.06 10^-6 cm/sec

The next lines start with the values.

Row | microsomal CLint at 1 µM [1] | Mouse Hepatic Microsome CLh,int NADPH(-) [1] | Papp A→B [2] | Caco2 Papp (10^-6 cm/sec) (Caco-2 cells) | Structure (SMILES)
7 | 41.7 µL/min/mg | 34.3 µL/min/mg Protein | 0.82 ×10⁻⁶ cm/s | 0.82 10^-6 cm/sec | CCCCN1CC(=O)N(C)[C@@H](Cc2ccccc2)C(=O)N[C@@H](COC(C)(C)C)C(=O)N(C)[C@@H](CC(C)C)C(=O)NCCC(=O)N(C)[C@@H](C)C(=O)N(C)[C@@H]([C@@H](C)CC)C(=O)N[C@@H](CC(C)C)C(=O)N(C)[C@H](C(=O)N2CCCCC2)CC(=O)N(C)CCC(=O)N(C)[C@@H](CC(C)C)C(=O)N[C@@H]([C@@H](C)CC)C(=O)N(C)[C@@H](Cc2ccccc2)C1=O [pd154] ([NMeβAla][NMeL]I[NMeF][NBuGly][NMeF]S(tBu)[NMeL][βAla][NMeA][NMeI]L[NMeD]-Piperidide; lactam N-13)
8 | 48.8 µL/min/mg | 37.2 µL/min/mg Protein | 0.87 ×10⁻⁶ cm/s | 0.87 10^-6 cm/sec | CC[C@H](C)[C@H]1C(=O)NCC(=O)N(C)[C@@H](CC(C)C)C(=O)N(C)[C@@H](C(C)C)C(=O)N(C)[C@@H](C)C(=O)N(C)[C@H](C(=O)N2CCCCC2)CC(=O)N(C)[C@@H](C)C(=O)N[C@@H](CC(C)C)C(=O)N(C)[C@@H](CC(C)C)C(=O)N[C@@H](COC(C)(C)C)C(=O)N(C)[C@@H](Cc2ccccc2)C(=O)N[C@@H](C)C(=O)N(C)[C@@H](Cc2ccccc2)C(=O)N1C [pd155] ([NMeA]L[NMeL]S(tBu)[NMeF]A[NMeF][NMeI]G[NMeL][NMeV][NMeA][NMeD]-Piperidide; lactam N-13)
9 | 19.3 µL/min/mg | 13.7 µL/min/mg Protein | 0.44 ×10⁻⁶ cm/s | 0.44 10^-6 cm/sec | CC(C)C[C@@H]1NC(=O)[C@H](CC(C)C)N(C)C(=O)[C@H]([C@@H](C)O)NC(=O)[C@H](C(C)C)N(C)C(=O)[C@H](Cc2ccccc2)N(C)C(=O)[C@@H](C(C)C)NC(=O)C[C@@H](C(=O)N2CCCCC2)N(C)C(=O)[C@H](C)N(C)C(=O)[C@H](Cc2ccccc2)N(C)C(=O)[C@H](C)NC(=O)[C@H](COC(C)(C)C)NC(=O)[C@H](CC(C)C)N(C)C(=O)CN(C)C1=O [pd158] ([dV][NMeF][NMeV]T[NMeL]L[Sar][NMeL]S(tBu)A[NMeF][NMeA][NMeD]-Piperidide; lactam N-13)
10 | 35.3 µL/min/mg | 37.0 µL/min/mg Protein | 0.09 ×10⁻⁶ cm/s | 0.09 10^-6 cm/sec | CC(C)C[C@@H]1NC(=O)[C@H](C(C)C)N(C)C(=O)[C@H](Cc2ccccc2)N(C)C(=O)[C@H](COC(C)(C)C)NC(=O)[C@H](CC(C)C)N(C)C(=O)[C@H](C)N(C)C(=O)[C@H]([C@@H](C)O)NC(=O)[C@H](CC(C)C)N(C)C(=O)[C@H](C(C)C)N(C)C(=O)[C@H](CCc2ccccc2)NC(=O)[C@H](CC(C)C)N(C)C(=O)[C@@H](C(C)C)N(C)C(=O)C[C@@H](C(=O)N2CCCCC2)N(C)C1=O [pd161] ([dNMeV][NMeL][hPhe][NMeV][NMeL]T[NMeA][NMeL]S(tBu)[NMeF][NMeV]L[NMeD]-Piperidide; lactam N-13)
11 | 12.5 µL/min/mg | 16.3 µL/min/mg Protein | 0.51 ×10⁻⁶ cm/s | 0.51 10^-6 cm/sec | CC[C@@H]1NC(=O)[C@H](CC(C)C)N(C)C(=O)[C@H]([C@@H](C)O)NC(=O)[C@H](C(C)C)N(C)C(=O)[C@H](Cc2ccccc2)N(C)C(=O)[C@@H](C(C)C)NC(=O)C[C@@H](C(=O)N2CCCCC2)N(C)C(=O)CN(C)C(=O)[C@H](Cc2ccccc2)N(C)C(=O)[C@H](C)N(C)C(=O)[C@H](COC(C)(C)C)NC(=O)[C@H](CC(C)C)N(C)C(=O)CN(C)C1=O [pd162] ([dV][NMeF][NMeV]T[NMeL][Abu][Sar][NMeL]S(tBu)[NMeA][NMeF][Sar][NMeD]-Piperidide; lactam N-13)
12 | 28.2 µL/min/mg | 36.5 µL/min/mg Protein | 0.04 ×10⁻⁶ cm/s | 0.04 10^-6 cm/sec | CC[C@@H]1NC(=O)[C@H](Cc2ccccc2)N(C)C(=O)[C@H](CC(C)C)N(C)C(=O)[C@H](CC(C)C)NC(=O)[C@H](C)N(C)C(=O)C[C@@H](C(=O)N2CCCCC2)N(C)C(=O)[C@H](CC(C)C)N(C)C(=O)[C@H]([C@@H](C)CC)NC(=O)[C@H](Cc2ccccc2)N(C)C(=O)[C@H]([C@@H](C)O)N(C)C(=O)[C@H]([C@@H](C)CC)N(C)C(=O)[C@H](CC(C)C)NC(=O)CN(C)C1=O [pd163] ([NMeA]L[NMeL][NMeF][Abu][Sar]L[NMeI][NMeT][NMeF]I[NMeL][NMeD]-Piperidide; lactam N-13)
13 | 14.6 µL/min/mg | 10.0 µL/min/mg Protein | 0.06 ×10⁻⁶ cm/s | 0.06 10^-6 cm/sec | CC[C@H](C)[C@@H]1NC(=O)[C@@H]2CCCN2C(=O)[C@H](C(C)C)N(C)C(=O)[C@H](CC(C)C)N(C)C(=O)C[C@@H](C(=O)N2CCCCC2)N(C)C(=O)[C@H](CC(C)C)NC(=O)[C@H](CC(C)C)N(C)C(=O)[C@H](C)NC(=O)[C@@H]2CCCN2C(=O)[C@H]([C@@H](C)O)NC(=O)[C@H](CC(C)C)N(C)C(=O)CN(C)C(=O)[C@H](Cc2ccccc2)N(C)C1=O [pd164] ([NMeL][NMeV]PI[NMeF][Sar][NMeL]TPA[NMeL]L[NMeD]-Piperidide; lactam N-13)
